Test results: publication PMC10337138 (Acta Neuropathologica Communications, 2023)

Experiments:
Conditions in all cases: 1 mM ATP; inhibitor
AKT2 = AKT2 (Homo sapiens, UniProt P31751)
Description: (§1) Kinase selectivity panel Kinome profiling was conducted by AssayQuant Technologies (Marlboro, MA) using Sox chromophore technology and Sox-based peptide substrates developed for human kinases in a 384-well format. Compounds were tested at 1 µM in the presence of 1 mM ATP.

BRSK1 = BRSK1 (Homo sapiens, UniProt Q8TDC3)
Description: as §1

CDK1/B1 = CDK1/B1 (Homo sapiens, UniProt P06493)
Description: as §1

CDK17 = CDK17 (Homo sapiens, UniProt Q00537)
Description: as §1

FGFR1 = FGFR1 (Homo sapiens, UniProt P11362)
Description: as §1

FYNA = biological target: T1, FYNA (Homo sapiens, UniProt P06241)
T1 construct: gene FYN
Description: as §1

GRK1 = GRK1 (Homo sapiens, UniProt Q15835)
Description: as §1

GRK6 = GRK6 (Homo sapiens, UniProt P43250)
Chain of GRK6 (P43250 whole entry): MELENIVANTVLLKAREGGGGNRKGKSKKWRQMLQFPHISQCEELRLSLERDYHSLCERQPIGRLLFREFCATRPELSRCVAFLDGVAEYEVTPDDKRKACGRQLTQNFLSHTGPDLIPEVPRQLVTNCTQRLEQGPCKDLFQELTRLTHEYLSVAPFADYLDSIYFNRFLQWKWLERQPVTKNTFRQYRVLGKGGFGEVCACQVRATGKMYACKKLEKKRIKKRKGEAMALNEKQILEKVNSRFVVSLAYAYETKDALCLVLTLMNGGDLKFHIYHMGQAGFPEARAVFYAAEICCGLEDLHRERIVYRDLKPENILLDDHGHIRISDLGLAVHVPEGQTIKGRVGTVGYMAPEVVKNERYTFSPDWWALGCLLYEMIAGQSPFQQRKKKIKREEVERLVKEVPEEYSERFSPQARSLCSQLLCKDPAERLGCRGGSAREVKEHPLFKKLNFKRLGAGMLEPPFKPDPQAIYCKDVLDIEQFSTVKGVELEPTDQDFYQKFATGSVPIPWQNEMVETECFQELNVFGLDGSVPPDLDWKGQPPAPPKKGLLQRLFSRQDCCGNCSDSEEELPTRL
Description: as §1

HCK = HCK (Homo sapiens, UniProt P08631)
Description: as §1

HIPK1 = HIPK1 (Homo sapiens, UniProt Q86Z02)
Description: as §1

HIPK3 = HIPK3 (Homo sapiens, UniProt Q9H422)
Description: as §1

KSR1 = KSR1 (Homo sapiens, UniProt Q8IVT5)
Description: as §1

MAP2K1/MEK1 = MAP2K1/MEK1 (Homo sapiens, UniProt Q02750)
Chain of MAP2K1/MEK1 (Q02750 whole entry): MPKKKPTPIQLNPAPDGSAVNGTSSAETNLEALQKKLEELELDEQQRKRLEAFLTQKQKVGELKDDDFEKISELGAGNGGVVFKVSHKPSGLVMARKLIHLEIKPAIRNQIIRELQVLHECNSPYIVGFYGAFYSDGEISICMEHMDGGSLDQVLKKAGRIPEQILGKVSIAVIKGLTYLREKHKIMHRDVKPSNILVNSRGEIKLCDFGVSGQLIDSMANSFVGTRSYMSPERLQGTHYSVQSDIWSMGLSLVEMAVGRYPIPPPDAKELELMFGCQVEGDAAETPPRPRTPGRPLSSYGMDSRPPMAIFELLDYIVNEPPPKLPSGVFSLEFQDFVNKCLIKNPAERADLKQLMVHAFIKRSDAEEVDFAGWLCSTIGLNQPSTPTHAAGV
Description: as §1

MAP3K12 = MAP3K12 (Homo sapiens, UniProt Q12852)
Description: as §1

MAP3K6/ASK2 = MAP3K6/ASK2 (Homo sapiens, UniProt O95382)
Chain of MAP3K6/ASK2 (O95382 whole entry): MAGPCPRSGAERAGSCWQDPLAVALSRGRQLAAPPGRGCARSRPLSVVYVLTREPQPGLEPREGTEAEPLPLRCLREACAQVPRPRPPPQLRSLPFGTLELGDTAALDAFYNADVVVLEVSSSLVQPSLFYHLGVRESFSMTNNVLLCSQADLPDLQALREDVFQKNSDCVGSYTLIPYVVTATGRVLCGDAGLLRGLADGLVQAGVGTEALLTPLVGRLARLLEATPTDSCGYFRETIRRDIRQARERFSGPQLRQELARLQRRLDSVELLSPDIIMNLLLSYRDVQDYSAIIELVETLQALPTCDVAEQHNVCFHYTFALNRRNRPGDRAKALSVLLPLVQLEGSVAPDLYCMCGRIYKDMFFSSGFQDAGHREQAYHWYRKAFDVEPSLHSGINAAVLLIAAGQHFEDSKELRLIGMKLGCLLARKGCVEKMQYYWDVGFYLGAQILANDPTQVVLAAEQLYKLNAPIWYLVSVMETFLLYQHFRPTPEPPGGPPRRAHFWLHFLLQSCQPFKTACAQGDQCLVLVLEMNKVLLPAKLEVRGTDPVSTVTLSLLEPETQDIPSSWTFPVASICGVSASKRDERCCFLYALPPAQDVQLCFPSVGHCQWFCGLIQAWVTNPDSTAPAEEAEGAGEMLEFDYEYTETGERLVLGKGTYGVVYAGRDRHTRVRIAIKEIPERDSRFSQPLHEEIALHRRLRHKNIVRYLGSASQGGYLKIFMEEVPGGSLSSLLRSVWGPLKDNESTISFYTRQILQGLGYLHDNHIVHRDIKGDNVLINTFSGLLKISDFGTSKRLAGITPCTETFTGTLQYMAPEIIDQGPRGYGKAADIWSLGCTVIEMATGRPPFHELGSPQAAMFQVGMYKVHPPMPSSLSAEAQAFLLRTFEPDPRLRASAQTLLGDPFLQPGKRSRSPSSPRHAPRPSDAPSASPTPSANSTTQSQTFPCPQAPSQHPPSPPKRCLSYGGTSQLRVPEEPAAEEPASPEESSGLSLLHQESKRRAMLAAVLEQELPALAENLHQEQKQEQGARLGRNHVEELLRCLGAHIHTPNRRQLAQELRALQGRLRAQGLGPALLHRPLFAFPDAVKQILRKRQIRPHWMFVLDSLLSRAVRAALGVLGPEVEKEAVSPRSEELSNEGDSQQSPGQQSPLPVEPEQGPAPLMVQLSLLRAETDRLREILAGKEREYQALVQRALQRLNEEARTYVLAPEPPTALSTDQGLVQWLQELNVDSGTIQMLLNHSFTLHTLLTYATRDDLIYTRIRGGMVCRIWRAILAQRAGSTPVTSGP
Description: as §1

MAP3K8 = MAP3K8 (Homo sapiens, UniProt P41279)
Description: as §1

MAPK15/ERK7 = MAPK15/ERK7 (Homo sapiens, UniProt Q8TD08)
Description: as §1

MAPK3/ERK1 = MAPK3/ERK1 (Homo sapiens, UniProt P27361)
Chain of MAPK3/ERK1 (P27361 whole entry): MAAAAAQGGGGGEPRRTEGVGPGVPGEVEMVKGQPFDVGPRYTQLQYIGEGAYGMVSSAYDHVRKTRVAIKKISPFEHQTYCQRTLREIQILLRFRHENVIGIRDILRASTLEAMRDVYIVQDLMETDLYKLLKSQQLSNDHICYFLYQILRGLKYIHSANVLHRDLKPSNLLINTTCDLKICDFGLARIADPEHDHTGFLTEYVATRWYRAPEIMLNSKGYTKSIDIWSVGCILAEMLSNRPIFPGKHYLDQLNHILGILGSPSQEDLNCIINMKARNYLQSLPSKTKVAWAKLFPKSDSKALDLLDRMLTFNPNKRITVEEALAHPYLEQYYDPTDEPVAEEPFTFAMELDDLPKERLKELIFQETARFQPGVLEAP
Description: as §1

MAPK7/ERK5 = MAPK7/ERK5 (Homo sapiens, UniProt Q13164)
Description: as §1

MUSK = MUSK (Homo sapiens, UniProt O15146)
Description: as §1

MYO3A = MYO3A (Homo sapiens, UniProt Q8NEV4)
Description: as §1

NEK11 = NEK11 (Homo sapiens, UniProt Q8NG66)
Description: as §1

NEK6 = NEK6 (Homo sapiens, UniProt Q9HC98)
Description: as §1

PAK3 = PAK3 (Homo sapiens, UniProt O75914)
Chain of PAK3 (O75914 whole entry): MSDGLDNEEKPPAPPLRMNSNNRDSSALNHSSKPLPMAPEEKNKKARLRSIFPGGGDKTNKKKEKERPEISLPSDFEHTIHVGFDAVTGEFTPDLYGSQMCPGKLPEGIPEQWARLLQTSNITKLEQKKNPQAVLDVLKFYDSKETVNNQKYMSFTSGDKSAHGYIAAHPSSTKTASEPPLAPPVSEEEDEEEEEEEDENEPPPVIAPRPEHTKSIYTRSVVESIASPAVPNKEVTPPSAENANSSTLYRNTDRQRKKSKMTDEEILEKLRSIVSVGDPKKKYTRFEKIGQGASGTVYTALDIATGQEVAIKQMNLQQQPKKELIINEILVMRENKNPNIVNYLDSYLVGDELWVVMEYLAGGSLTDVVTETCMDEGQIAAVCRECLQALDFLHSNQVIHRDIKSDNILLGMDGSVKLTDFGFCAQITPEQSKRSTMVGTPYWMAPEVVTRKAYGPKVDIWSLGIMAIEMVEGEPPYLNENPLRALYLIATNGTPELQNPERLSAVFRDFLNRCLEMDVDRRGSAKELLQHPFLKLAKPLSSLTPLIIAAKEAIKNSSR
Description: as §1

PAK5 = PAK5 (Homo sapiens, UniProt Q9P286)
Description: as §1

PHKG1 = PHKG1 (Homo sapiens, UniProt Q16816)
Description: as §1

PIM2 = PIM2 (Homo sapiens, UniProt Q9P1W9)
Chain of PIM2 (Q9P1W9 whole entry): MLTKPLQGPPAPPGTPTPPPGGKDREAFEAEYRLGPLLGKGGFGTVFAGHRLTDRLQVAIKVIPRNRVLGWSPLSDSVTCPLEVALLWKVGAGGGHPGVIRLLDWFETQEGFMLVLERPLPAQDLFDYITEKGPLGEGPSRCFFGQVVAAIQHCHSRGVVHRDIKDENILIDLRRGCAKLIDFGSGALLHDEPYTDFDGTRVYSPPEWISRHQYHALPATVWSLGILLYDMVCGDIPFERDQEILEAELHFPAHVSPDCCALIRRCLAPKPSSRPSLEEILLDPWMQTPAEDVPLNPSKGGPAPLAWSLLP
Description: as §1

PRKAA1/AMPK121 = PRKAA1/AMPK121 (Homo sapiens, UniProt Q13131)
Description: as §1

PRKAA2/AMPK221 = PRKAA2/AMPK221 (Homo sapiens, UniProt P54646)
Description: as §1

PRKCB2/PKCB2 = biological target: T2, PRKCB2/PKCB2 (Homo sapiens, UniProt P05771)
T2 construct: gene PRKCB
T2 sequence (P05771 whole entry): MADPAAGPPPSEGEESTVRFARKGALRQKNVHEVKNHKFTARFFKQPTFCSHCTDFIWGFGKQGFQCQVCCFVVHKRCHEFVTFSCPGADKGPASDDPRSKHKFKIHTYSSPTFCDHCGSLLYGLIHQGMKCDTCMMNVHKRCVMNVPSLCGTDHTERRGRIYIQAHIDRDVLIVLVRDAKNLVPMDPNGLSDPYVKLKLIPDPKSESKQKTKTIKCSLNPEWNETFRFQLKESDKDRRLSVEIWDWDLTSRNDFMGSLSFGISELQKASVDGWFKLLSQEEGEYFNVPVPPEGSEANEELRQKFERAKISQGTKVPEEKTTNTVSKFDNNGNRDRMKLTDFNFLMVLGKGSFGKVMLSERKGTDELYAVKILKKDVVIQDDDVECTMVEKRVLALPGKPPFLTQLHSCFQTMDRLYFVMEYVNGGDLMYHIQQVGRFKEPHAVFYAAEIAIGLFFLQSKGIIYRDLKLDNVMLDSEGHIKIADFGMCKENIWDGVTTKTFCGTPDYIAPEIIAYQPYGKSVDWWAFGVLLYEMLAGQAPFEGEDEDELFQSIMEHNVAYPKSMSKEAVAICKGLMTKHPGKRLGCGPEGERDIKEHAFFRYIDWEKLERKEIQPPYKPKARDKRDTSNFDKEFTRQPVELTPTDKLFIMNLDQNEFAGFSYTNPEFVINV
Description: as §1

PRKCE/PKCE = PRKCE/PKCE (Homo sapiens, UniProt Q02156)
Description: as §1

PRKCQ/PKCQ = PRKCQ/PKCQ (Homo sapiens, UniProt Q04759)
Description: as §1

RPS6KA3/RSK2 = RPS6KA3/RSK2 (Homo sapiens, UniProt P51812)
Description: as §1

SRPK2 = SRPK2 (Homo sapiens, UniProt P78362)
Description: as §1

SRPK3/MSSK1 = SRPK3/MSSK1 (Homo sapiens, UniProt Q9UPE1)
Chain of SRPK3/MSSK1 (Q9UPE1 whole entry): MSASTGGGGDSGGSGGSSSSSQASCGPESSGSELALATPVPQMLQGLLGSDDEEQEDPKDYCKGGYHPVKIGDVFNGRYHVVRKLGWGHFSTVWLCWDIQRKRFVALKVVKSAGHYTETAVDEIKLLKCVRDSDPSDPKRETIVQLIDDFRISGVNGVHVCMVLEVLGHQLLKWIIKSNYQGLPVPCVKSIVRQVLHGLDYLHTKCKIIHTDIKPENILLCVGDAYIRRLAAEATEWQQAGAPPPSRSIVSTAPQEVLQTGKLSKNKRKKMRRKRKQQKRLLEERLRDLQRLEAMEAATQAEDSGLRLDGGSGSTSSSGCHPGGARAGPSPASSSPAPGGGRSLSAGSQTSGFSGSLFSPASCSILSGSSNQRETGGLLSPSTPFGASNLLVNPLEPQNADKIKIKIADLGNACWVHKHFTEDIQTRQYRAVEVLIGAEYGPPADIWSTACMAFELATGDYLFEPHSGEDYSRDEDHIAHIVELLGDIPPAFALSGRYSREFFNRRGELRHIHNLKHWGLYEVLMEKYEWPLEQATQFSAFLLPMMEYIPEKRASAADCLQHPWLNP
Description: as §1

STK11/LKB1 = STK11/LKB1 (Homo sapiens, UniProt Q15831)
Description: as §1

STK3/MST2 = STK3/MST2 (Homo sapiens, UniProt Q13188)
Description: as §1

ZNF33A/ZAK = biological target: T3, ZNF33A/ZAK (Homo sapiens, UniProt Q9NYL2)
T3 construct: gene MAP3K20
Description: as §1

With C=CC(=O)N1CCC[C@@H](n2nc(-c3ccc(Oc4ccccc4)cc3)c3c(N)ncnc32)C1 [Ibrutinib] the “1 µM GBD00276 (ibrutinib), % inhibition” value (AKT2) was 17.43%, the “1 µM GBD00276 (ibrutinib), % inhibition” value (BRSK1) was 2.387% and the “1 µM GBD00276 (ibrutinib), % inhibition” value (CDK1/B1) was -7.635%. The “1 µM GBD00276 (ibrutinib), % inhibition” value (CDK17) was 5.795%, the “1 µM GBD00276 (ibrutinib), % inhibition” value (FGFR1) was 21.97% and the “1 µM GBD00276 (ibrutinib), % inhibition” value (FYNA) was 15.99%. The “1 µM GBD00276 (ibrutinib), % inhibition” value (GRK1) was 10.14%, the “1 µM GBD00276 (ibrutinib), % inhibition” value (GRK6) was -23.1% and the “1 µM GBD00276 (ibrutinib), % inhibition” value (HCK) was 42.82%. For the same compound, the “1 µM GBD00276 (ibrutinib), % inhibition” value (HIPK1) was 7.799%, the “1 µM GBD00276 (ibrutinib), % inhibition” value (HIPK3) was -0.6618% and the “1 µM GBD00276 (ibrutinib), % inhibition” value (KSR1) was 8.4%. The “1 µM GBD00276 (ibrutinib), % inhibition” value (MAP2K1/MEK1) was -19%, the “1 µM GBD00276 (ibrutinib), % inhibition” value (MAP3K12) was -16.4% and the “1 µM GBD00276 (ibrutinib), % inhibition” value (MAP3K6/ASK2) was 25.05%. For the same compound, the “1 µM GBD00276 (ibrutinib), % inhibition” value (MAP3K8) was -11.27%, the “1 µM GBD00276 (ibrutinib), % inhibition” value (MAPK15/ERK7) was -6.367% and the “1 µM GBD00276 (ibrutinib), % inhibition” value (MAPK3/ERK1) was 2.161%. The “1 µM GBD00276 (ibrutinib), % inhibition” value (MAPK7/ERK5) was -0.1217%, the “1 µM GBD00276 (ibrutinib), % inhibition” value (MUSK) was 8.501% and the “1 µM GBD00276 (ibrutinib), % inhibition” value (MYO3A) was -10.26%. The “1 µM GBD00276 (ibrutinib), % inhibition” value (NEK11) was -9.805%, the “1 µM GBD00276 (ibrutinib), % inhibition” value (NEK6) was -7.047% and the “1 µM GBD00276 (ibrutinib), % inhibition” value (PAK3) was 14.04%. The “1 µM GBD00276 (ibrutinib), % inhibition” value (PAK5) was 14.25%, the “1 µM GBD00276 (ibrutinib), % inhibition” value (PHKG1) was 0.1781% and the “1 µM GBD00276 (ibrutinib), % inhibition” value (PIM2) was -3.683%. The “1 µM GBD00276 (ibrutinib), % inhibition” value (PRKAA1/AMPK121) was 2.34%, the “1 µM GBD00276 (ibrutinib), % inhibition” value (PRKAA2/AMPK221) was 4.802% and the “1 µM GBD00276 (ibrutinib), % inhibition” value (PRKCB2/PKCB2) was -15.35%. For the same compound, the “1 µM GBD00276 (ibrutinib), % inhibition” value (PRKCE/PKCE) was -10.08%, the “1 µM GBD00276 (ibrutinib), % inhibition” value (PRKCQ/PKCQ) was 12.04% and the “1 µM GBD00276 (ibrutinib), % inhibition” value (RPS6KA3/RSK2) was 28.78%. For the same compound, the “1 µM GBD00276 (ibrutinib), % inhibition” value (SRPK2) was 8.374%, the “1 µM GBD00276 (ibrutinib), % inhibition” value (SRPK3/MSSK1) was 1.885% and the “1 µM GBD00276 (ibrutinib), % inhibition” value (STK11/LKB1) was -2.74%. The “1 µM GBD00276 (ibrutinib), % inhibition” value (STK3/MST2) was -10.97% and the “1 µM GBD00276 (ibrutinib), % inhibition” value (ZNF33A/ZAK) was -3.326%.
